# Data as given in patent publication US20240382494A1, “THERAPEUTIC COMPOUNDS” (priority 2023, published 2024).
# How the values were obtained:
# [1] = test system: SARS-CoV-2 viral replication; settings: cited from earlier work
# [2] = Cytotoxicity assay in Vero E6 cells (neutral red uptake); format: cell-based; settings: African green monkey; Vero E6 cells, 2 days at 37° C., neutral red uptake; read-out: Vero CC50
# [3] = biological target: SARS-CoV-2 PLpro (Severe acute respiratory syndrome coronavirus 2, UniProt P0DTD1); experiment: FRET-based PLpro enzymatic assay; format: biochemical; settings: 200 nM PLpro, 10 μM FRET substrate, 30 min preincubation at 30° C.; read-out: IC50
# Outline: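 200 nM PLpro in 50 mM Hepes pH 7.5, 0.01% Triton X-100, 5 mM DTT, preincubated with compound 30 min at 30 °C; 10 μM final FRET substrate.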
structure (smiles),measurement,setting,value
Cc1ccc(N)cc1C(=O)N[C@H](C)c1cccc2ccccc12 [GRL0617],EC50,[1],~20 µM
"COc1cc(-c2cc([C@@H](C)NC(=O)c3cc(OCCN(C)C)ccc3C)c3ccccc3n2)cs1 [Example 68, (R)-5-(2-(dimethylamino)ethoxy)-N-(1-(2-(5-methoxythiophene-3-yl)quinolin-4-yl)ethyl)-2-methylbenzamide]",CC50 at 2 days,[2],13.9 ± 4.32 µM
same,IC50,[3],< 500 nM
"Cc1ccc(N2CCC3(CC2)CN(C)C3)cc1C(=O)N[C@H](C)c1cc(-c2cnn(C)c2)nc2ccccc12 [Example 92, (R)-2-methyl-N-(1-(2-(1-methyl-1H-pyrazol-4-yl)quinolin-4-yl)ethyl)-5-(2-methyl-2,7-diazaspiro[3.5]nonan-7-yl)benzamide]",CC50 at 2 days,[2],76.5 ± 2.18 µM
same,IC50,[3],500 to 1000 nM
"Cc1ccc(OCCN(C)C)cc1C(=O)N[C@H](C)c1cc(-c2cnn(CCO)c2)nc2ccccc12 [Example 22, (R)-5-(2-(dimethylamino)ethoxy)-N-(1-(2-(1-(2-hydroxyethyl)-1H-pyrazol-4-yl)quinolin-4-yl)ethyl)-2-methylbenzamide]",CC50 at 2 days,[2],153 ± 43.9 µM
same,IC50,[3],< 500 nM
"Cc1ccc(OCCN(C)C)cc1C(=O)N[C@H](C)c1cc(-c2cnn(CC(=O)N(C)C)c2)nc2ccccc12 [Example 71, (R)—N-(1-(2-(1-(2-(dimethylamino)-2-oxoethyl)-1H-pyrazol-4-yl)quinolin-4-yl)ethyl)-5-(2-(dimethylamino)ethoxy)-2-methylbenzamide]",CC50 at 2 days,[2],> 250 µM
same,IC50,[3],< 500 nM
"Cc1ccc(OCCN(C)C)cc1C(=O)N[C@H](C)c1cc(-c2cnn(CCC#N)c2)nc2ccccc12 [Example 59, (R)—N-(1-(2-(1-(2-cyanoethyl)-1H-pyrazol-4-yl)quinolin-4-yl)ethyl)-5-(2-(dimethylamino)ethoxy)-2-methylbenzamide]",CC50 at 2 days,[2],101 ± 15.2 µM
same,IC50,[3],> 5000 nM
"Cc1ccc(N2CCN(C)[C@H](C)C2)cc1C(=O)N[C@H](C)c1cc(-c2ccn(C)n2)nc2ccccc12 [Example 99, 5-((R)-3,4-dimethylpiperazin-1-yl)-2-methyl-N—((R)-1-(2-(1-methyl-1H-pyrazol-3-yl)quinolin-4-yl)ethyl)benzamide]",CC50 at 2 days,[2],24.3 ± 2.62 µM
same,IC50,[3],< 500 nM
"Cc1ccc(OCCN(C)C)cc1C(=O)N[C@H](C)c1cc(-c2ccc3cn[nH]c3c2)nc2ccccc12 [Example 61, (R)—N-(1-(2-(1H-indazol-6-yl)quinolin-4-yl)ethyl)-5-(2-(dimethylamino)ethoxy)-2-methylbenzamide]",CC50 at 2 days,[2],25.7 ± 2.09 µM
same,IC50,[3],> 5000 nM
"Cc1ccc(OCC2CN(C)C2)cc1C(=O)N[C@H](C)c1cc(-c2cnn(C)c2)nc2ccccc12 [Example 91, (R)-2-methyl-N-(1-(2-(1-methyl-1H-pyrazol-4-yl)quinolin-4-yl)ethyl)-5-((1-methylazetidin-3-yl)methoxy)benzamide]",CC50 at 2 days,[2],96.1 ± 5.36 µM
same,IC50,[3],< 500 nM
"Cc1ccc(N(C)C2(C)CN(C)C2)cc1C(=O)N[C@H](C)c1cc(-c2cnn(C)c2)nc2ccccc12 [Example 93, (R)-5-((1,3-dimethylazetidin-3-yl)(methyl)amino)-2-methyl-N-(1-(2-(1-methyl-1H-pyrazol-4-yl)quinolin-4-yl)ethyl)benzamide]",CC50 at 2 days,[2],129 ± 2.32 µM
same,IC50,[3],1000 to 5000 nM
"Cc1ccc(OCCN(C)C)cc1C(=O)N[C@@H](C)c1cc(-c2cnn(C3CC3)c2)nc2ccccc12 [Example 20, (S)—N-(1-(2-(1-cyclopropyl-1H-pyrazol-4-yl)quinolin-4-yl)ethyl)-5-(2-(dimethylamino)ethoxy)-2-methylbenzamide]",CC50 at 2 days,[2],59.6 ± 8.56 µM
same,IC50,[3],< 500 nM
"Cc1ccc(O[C@H]2CCN(C)C2)cc1C(=O)N[C@H](C)c1cc(-c2cnn(C)c2)nc2ccccc12 [Example 82, 2-methyl-N—((R)-1-(2-(1-methyl-1H-pyrazol-4-yl)quinolin-4-yl)ethyl)-5-(((S)-1-methyl-pyrrolidin-3-yl)oxy)benzamide]",CC50 at 2 days,[2],48.3 ± 2.9 µM
same,IC50,[3],< 500 nM
"Cc1ccc(OCCN(C)C)cc1C(=O)N[C@H](C)c1cc(-c2cnn(CC(=O)O)c2)nc2ccccc12 [Example 53, (R)-2-(4-(4-(1-(5-(2-(dimethylamino)ethoxy)-2-methylbenzamido)ethyl)quinolin-2-yl)-1H-pyrazol-1-yl)acetic acid]",CC50 at 2 days,[2],> 250 µM
same,IC50,[3],< 500 nM
"COCCn1cc(-c2cc([C@H](C)NC(=O)c3cc(OCCN(C)C)ccc3C)c3ccccc3n2)cn1 [Example 19, (S)-5-(2-(dimethylamino)ethoxy)-N-(1-(2-(1-(2-methoxyethyl)-1H-pyrazol-4-yl)quinolin-4-yl)ethyl)-2-methylbenzamide]",CC50 at 2 days,[2],> 125 µM
same,IC50,[3],1000 to 5000 nM
"Cc1ccc(N2CCN(C)C3(CC3)C2)cc1C(=O)N[C@H](C)c1cc(-c2cnn(C)c2)nc2ccccc12 [Example 80, (R)-2-methyl-N-(1-(2-(1-methyl-1H-pyrazol-4-yl)quinolin-4-yl)ethyl)-5-(4-methyl-4,7-diazaspiro[2.5]octan-7-yl)benzamide]",CC50 at 2 days,[2],49.7 ± 4.65 µM
same,IC50,[3],< 500 nM
"Cc1ccc(OCCN(C)C)cc1C(=O)N[C@H](C)c1cc(-n2cncn2)nc2ccccc12 [Example 47, (R)—N-(1-(2-(1H-1,2,4-triazol-1-yl)quinoline 4-yl)ethyl)-5-(2-(dimethylamino)ethoxy)-2-methylbenzamide]",CC50 at 2 days,[2],17.5 ± 5.23 µM
same,IC50,[3],500 to 1000 nM
"Cc1ccc(OCCN(C)C)cc1C(=O)N[C@H](C)c1cc(-c2ccc(CN3CCOCC3)s2)nc2ccccc12 [Example 16, (R)-5-(2-(dimethylamino)ethoxy)-2-methyl-N-(1-(2-(5-(morpholinomethyl)thiophen-2-yl)quinolin-4-yl)ethyl)benzamide]",CC50 at 2 days,[2],30.6 ± 10.6 µM
same,IC50,[3],< 500 nM
"Cc1ccc(OCCN(C)C)cc1C(=O)N[C@H](C)c1cc(-c2cnc3[nH]ccc3c2)nc2ccccc12 [Example 60, (R)—N-(1-(2-(1H-pyrrolo[2,3-b]pyridin-5-yl)-quinolin-4-yl)ethyl)-5-(2-(dimethylamino)ethoxy)-2-methylbenzamide]",CC50 at 2 days,[2],25.8 ± 2.25 µM
same,IC50,[3],> 5000 nM
"Cc1ccc(OC[C@@H]2C[C@@H](F)CN2C)cc1C(=O)N[C@H](C)c1cc(-c2cnn(C)c2)nc2ccccc12 [Example 85, 5-(((2S,4R)-4-fluoro-1-methylpyrrolidin-2-yl)methoxy)-2-methyl-N—((R)-1-(2-(1-methyl-1H-pyrazol-4-yl)quinolin-4-yl)ethyl)benzamide]",CC50 at 2 days,[2],33.9 ± 3.74 µM
same,IC50,[3],< 500 nM
"Cc1ccc(OCCN(C)C)cc1C(=O)N[C@H](C)c1cc(-c2cncs2)nc2ccccc12 [Example 5, (R)-5-(2-(dimethylamino)ethoxy)-2-methyl-N-(1-(2-(thiazol-5-yl)quinolin-4-yl)ethyl)benzamide]",CC50 at 2 days,[2],44.7 ± 11.7 µM
same,IC50,[3],< 500 nM
"Cc1ccc(OCCN(C)C)cc1C(=O)N[C@H](C)c1cc(-c2cc[nH]c(=O)c2)nc2ccccc12 [Example 54, (R)-5-(2-(dimethylamino)ethoxy)-2-methyl-N-(1-(2-(2-oxo-1,2-dihydropyridin-4-yl)quinolin-4-yl)ethyl)benzamide]",CC50 at 2 days,[2],> 125 µM
same,IC50,[3],500 to 1000 nM
